{"source": "ChEMBL document CHEMBL1151438", "about": "“In vitro resistance study of rupintrivir, a novel inhibitor of human rhinovirus 3C protease” (Antimicrob Agents Chemother, 2007)", "key": {"rhinovirus B14 [1]": {"test_system": "rhinovirus B14", "assay": "Antiviral activity against HRV14 with 3C protease T129A mutation infected in human H1-HeLa cells assessed as virus-induced cytopathic effect after 3 days by XTT assay", "type": "functional, organism-based", "settings": "Rhinovirus B, 72 h"}, "rhinovirus B14 [2]": {"test_system": "rhinovirus B14", "assay": "Antiviral activity against HRV14 with 3C protease T131A mutation infected in human H1-HeLa cells assessed as virus-induced cytopathic effect after 3 days by XTT assay", "type": "functional, organism-based", "settings": "Rhinovirus B, 72 h"}, "rhinovirus B14 [3]": {"test_system": "rhinovirus B14", "assay": "Antiviral activity against wild type HRV14 infected in human H1-HeLa cells assessed as virus-induced cytopathic effect after 3 days by XTT assay", "type": "functional, organism-based", "settings": "Rhinovirus B, 72 h"}, "rhinovirus A2 [4]": {"test_system": "rhinovirus A2", "assay": "Ratio of EC50 for HRV2 infected in human H1-HeLa cells after 2 passages for 10 days to EC50 for wild type HRV2 infected in human H1-HeLa cells", "type": "functional"}, "rhinovirus B14 [5]": {"test_system": "rhinovirus B14", "assay": "Antiviral activity against HRV14 with 3C protease T129T/A, T131T/A, T143P/S mutation infected in human H1-HeLa cells assessed as virus-induced cytopathic effect after 3 passages for 14 days by XTT assay", "type": "functional, organism-based", "settings": "Rhinovirus B, 336 h"}, "rhinovirus A39 [6]": {"test_system": "rhinovirus A39", "assay": "Ratio of EC50 for HRV39 infected in human H1-HeLa cells after 2 passages for 12 days to EC50 for wild type HRV39 infected in human H1-HeLa cells", "type": "functional"}, "Human rhinovirus sp. [7]": {"test_system": "Human rhinovirus sp.", "assay": "Ratio of EC50 for HRV Hanks infected in human H1-HeLa cells after 2 passage for 17 days to EC50 for wild type HRV Hanks infected in human H1-HeLa cells", "type": "functional"}, "rhinovirus B14 [8]": {"test_system": "rhinovirus B14", "assay": "Ratio of EC50 for HRV14 with 3C protease T143P mutation infected in human H1-HeLa cells to EC50 for wild type HRV14 infected in human H1-HeLa cells", "type": "functional"}, "rhinovirus A2 [9]": {"test_system": "rhinovirus A2", "assay": "Ratio of EC50 for HRV2 infected in human H1-HeLa cells after 4 passages for 24 days to EC50 for wild type HRV2 infected in human H1-HeLa cells", "type": "functional"}, "rhinovirus A39 [10]": {"test_system": "rhinovirus A39", "assay": "Ratio of EC50 for HRV39 infected in human H1-HeLa cells after 6 passages for 33 days to EC50 for wild type HRV39 infected in human H1-HeLa cells", "type": "functional"}, "rhinovirus A39 [11]": {"test_system": "rhinovirus A39", "assay": "Antiviral activity against HRV39 with 3C protease […], L136/F mutation infected in human H1-HeLa cells assessed as virus-induced cytopathic effect after 5 passages for 29 days by XTT assay", "type": "functional, organism-based", "settings": "Rhinovirus A, 696 h"}, "rhinovirus B14 [12]": {"test_system": "rhinovirus B14", "assay": "Antiviral activity against HRV14 with 3C protease A121A/V, T129A, T131A, T143P, Y139Y/H mutation infected in human H1-HeLa cells assessed as virus-induced cytopathic effect after 11 passages for 65 days by XTT assay", "type": "functional, organism-based", "settings": "Rhinovirus B"}, "rhinovirus A39 [13]": {"test_system": "rhinovirus A39", "assay": "Ratio of EC50 for HRV39 with 3C protease S105S/T, N130K, L136F mutation infected in human H1-HeLa cells after 9 passages for 50 days to EC50 for wild type HRV39 infected in human H1-HeLa cells", "type": "functional"}, "rhinovirus B14 [14]": {"test_system": "rhinovirus B14", "assay": "Ratio of EC50 for HRV14 infected in human H1-HeLa cells after 5 passages for 22 days to EC50 for wild type HRV14 infected in human H1-HeLa cells", "type": "functional"}, "rhinovirus A2 [15]": {"test_system": "rhinovirus A2", "assay": "Ratio of EC50 for HRV2 infected in human H1-HeLa cells after 5 passages for 30 days to EC50 for wild type HRV2 infected in human H1-HeLa cells", "type": "functional"}, "Human rhinovirus sp. [16]": {"test_system": "Human rhinovirus sp.", "assay": "Ratio of EC50 for HRV Hanks infected in human H1-HeLa cells after 3 passage for 35 days to EC50 for wild type HRV Hanks infected in human H1-HeLa cells", "type": "functional"}, "rhinovirus A2 [17]": {"test_system": "rhinovirus A2", "assay": "Ratio of EC50 for HRV2 with 3C protease N165T mutation infected in human H1-HeLa cells after 6 passages for 37 days to EC50 for wild type HRV2 infected in human H1-HeLa cells", "type": "functional"}, "Human rhinovirus sp. [18]": {"test_system": "Human rhinovirus sp.", "assay": "Ratio of EC50 for HRV Hanks infected in human H1-HeLa cells after 6 passage for 40 days to EC50 for wild type HRV Hanks infected in human H1-HeLa cells", "type": "functional"}, "Human rhinovirus sp. [19]": {"test_system": "Human rhinovirus sp.", "assay": "Ratio of EC50 for HRV Hanks with 3C protease T130A mutation infected in human H1-HeLa cells after 6 passages for 40 days to EC50 for wild type HRV Hanks infected in human H1-HeLa cells", "type": "functional"}, "rhinovirus B14 [20]": {"test_system": "rhinovirus B14", "assay": "Ratio of EC50 for HRV14 with 3C protease Y139H mutation infected in human H1-HeLa cells to EC50 for wild type HRV14 infected in human H1-HeLa cells", "type": "functional"}, "rhinovirus A2 [21]": {"test_system": "rhinovirus A2", "assay": "Antiviral activity against HRV2 with 3C protease E3E/G, A103A/V, N165T mutation infected in human H1-HeLa cells assessed as virus-induced cytopathic effect after 9 passages for 62 days by XTT assay", "type": "functional, organism-based", "settings": "Rhinovirus A"}, "rhinovirus A2 [22]": {"test_system": "rhinovirus A2", "assay": "Ratio of EC50 for HRV2 with 3C protease N165T mutation infected in human H1-HeLa cells after 3 passages for 24 days to EC50 for wild type HRV2 infected in human H1-HeLa cells", "type": "functional"}, "rhinovirus A39 [23]": {"test_system": "rhinovirus A39", "assay": "Ratio of EC50 for HRV39 infected in human H1-HeLa cells after 4 passages for 24 days to EC50 for wild type HRV39 infected in human H1-HeLa cells", "type": "functional"}, "rhinovirus B14 [24]": {"test_system": "rhinovirus B14", "assay": "Ratio of EC50 for HRV14 infected in human H1-HeLa cells after 7 passages for 33 days to EC50 for wild type HRV14 infected in human H1-HeLa cells", "type": "functional"}, "rhinovirus A2 [25]": {"test_system": "rhinovirus A2", "assay": "Ratio of EC50 for HRV2 with 3C protease N165T mutation infected in human H1-HeLa cells after 5 passages for 30 days to EC50 for wild type HRV2 infected in human H1-HeLa cells", "type": "functional"}, "rhinovirus B14 [26]": {"test_system": "rhinovirus B14", "assay": "Ratio of EC50 for HRV14 infected in human H1-HeLa cells after 6 passages for 27 days to EC50 for wild type HRV14 infected in human H1-HeLa cells", "type": "functional"}, "rhinovirus A39 [27]": {"test_system": "rhinovirus A39", "assay": "Ratio of EC50 for HRV39 infected in human H1-HeLa cells after 3 passages for 14 days to EC50 for wild type HRV39 infected in human H1-HeLa cells", "type": "functional"}, "rhinovirus B14 [28]": {"test_system": "rhinovirus B14", "assay": "Antiviral activity against HRV14 with 3C protease T129A, T131A, T143P, Y139Y/H mutation infected in human H1-HeLa cells assessed as virus-induced cytopathic effect after 10 passages for 55 days by XTT assay", "type": "functional, organism-based", "settings": "Rhinovirus B"}, "rhinovirus A2 [29]": {"test_system": "rhinovirus A2", "assay": "Antiviral activity against HRV2 infected in human H1-HeLa cells assessed as virus-induced cytopathic effect after 3 passages for 17 days by XTT assay", "type": "functional, organism-based", "settings": "Rhinovirus A, 408 h"}, "rhinovirus A2 [30]": {"test_system": "rhinovirus A2", "assay": "Antiviral activity against HRV2 with 3C protease N165T mutation infected in human H1-HeLa cells assessed as virus-induced cytopathic effect after 4 passages for 24 days by XTT assay", "type": "functional, organism-based", "settings": "Rhinovirus A, 576 h"}, "rhinovirus A2 [31]": {"test_system": "rhinovirus A2", "assay": "Ratio of EC50 for HRV2 infected in human H1-HeLa cells after 9 passages for 62 days to EC50 for wild type HRV2 infected in human H1-HeLa cells", "type": "functional"}, "rhinovirus B14 [32]": {"test_system": "rhinovirus B14", "assay": "Ratio of EC50 for HRV14 with 3C protease with A121A/V, T129A, T131A, N132S, Y139Y/H, T143P mutation infected in human H1-HeLa cells after 12 passages for 72 days to EC50 for wild type HRV14 infected in human H1-HeLa cells", "type": "functional"}, "rhinovirus B14 [33]": {"test_system": "rhinovirus B14", "assay": "Antiviral activity against 0.02 MOI wild type HRV14 infected in human H1-HeLa cells assessed as cell killing after 3 days by XTT assay", "type": "functional"}}}
{"smiles": "CCOC(=O)/C=C/[C@H](C[C@@H]1CCNC1=O)NC(=O)[C@@H](CC(=O)[C@@H](NC(=O)c1cc(C)on1)C(C)C)Cc1ccc(F)cc1", "note": "[RUPINTRIVIR]", "values": [{"measurement": "EC50", "setting": "rhinovirus B14 [1]", "value": 14, "unit": "nM"}, {"measurement": "EC50", "setting": "rhinovirus B14 [2]", "value": 14, "unit": "nM"}, {"measurement": "EC50", "setting": "rhinovirus B14 [3]", "value": 21, "unit": "nM"}, {"measurement": "Ratio EC50", "setting": "rhinovirus A2 [4]", "value": 1}, {"measurement": "EC50", "setting": "rhinovirus B14 [5]", "value": 152, "unit": "nM"}, {"measurement": "Ratio EC50", "setting": "rhinovirus A39 [6]", "value": 4}, {"measurement": "Ratio EC50", "setting": "Human rhinovirus sp. [7]", "value": 2}, {"measurement": "Ratio EC50", "setting": "rhinovirus B14 [8]", "value": 1}, {"measurement": "Ratio EC50", "setting": "rhinovirus A2 [9]", "value": 5}, {"measurement": "Ratio EC50", "setting": "rhinovirus A39 [10]", "value": 6}, {"measurement": "EC50", "setting": "rhinovirus A39 [11]", "value": 83, "unit": "nM"}, {"measurement": "EC50", "setting": "rhinovirus B14 [12]", "value": 335, "unit": "nM"}, {"measurement": "Ratio EC50", "setting": "rhinovirus A39 [13]", "value": 4}, {"measurement": "Ratio EC50", "setting": "rhinovirus B14 [14]", "value": 20}, {"measurement": "Ratio EC50", "setting": "rhinovirus A2 [15]", "value": 5}, {"measurement": "Ratio EC50", "setting": "Human rhinovirus sp. [16]", "value": 2}, {"measurement": "Ratio EC50", "setting": "rhinovirus A2 [17]", "value": 2}, {"measurement": "Ratio EC50", "setting": "Human rhinovirus sp. [18]", "value": 3}, {"measurement": "Ratio EC50", "setting": "Human rhinovirus sp. [19]", "value": 3}, {"measurement": "Ratio EC50", "setting": "rhinovirus B14 [20]", "value": 1}, {"measurement": "EC50", "setting": "rhinovirus A2 [21]", "value": 140, "unit": "nM"}, {"measurement": "Ratio EC50", "setting": "rhinovirus A2 [22]", "value": 1}, {"measurement": "Ratio EC50", "setting": "rhinovirus A39 [23]", "value": 6}, {"measurement": "Ratio EC50", "setting": "rhinovirus B14 [24]", "value": 30}, {"measurement": "Ratio EC50", "setting": "rhinovirus A2 [25]", "value": 2}, {"measurement": "Ratio EC50", "setting": "rhinovirus B14 [26]", "value": 20}, {"measurement": "Ratio EC50", "setting": "rhinovirus A39 [27]", "value": 6}, {"measurement": "EC50", "setting": "rhinovirus B14 [28]", "value": 324, "unit": "nM"}, {"measurement": "EC50", "setting": "rhinovirus A2 [29]", "value": 34, "unit": "nM"}, {"measurement": "EC50", "setting": "rhinovirus A2 [30]", "value": 44, "unit": "nM"}, {"measurement": "Ratio EC50", "setting": "rhinovirus A2 [31]", "value": 15}, {"measurement": "Ratio EC50", "setting": "rhinovirus B14 [32]", "value": 20}, {"measurement": "Activity", "setting": "rhinovirus B14 [33]", "value": 90.2, "unit": "%"}]}
